Patent US5493007A, “Platelet aggregation inhibitors having high specificity for GPIIBIIIA” (Genentech, Inc., priority 1994, dated 1996)
Several values for one entry are separate records, joined by “and”; a condition that tells them apart may be missing. Equal values may be shown once. *1 amine or outer side, *2 acyl side, *3 side chain or, on linkers, in order; H or OH if unused. Where a SMILES comes first, the peptide text is derived from it. Bridges are numbered along the chain shown (N, C = ends). [ ]: non-standard residue; d: D form. The star is where a group is joined. Ethylenediamine = C(CN[*:2])N[*:1]; Aad = N[C@@H](CCCC(=O)O)C(=O)O; Pen = CC(C)(S)[C@H](N)C(=O)O; dOrn = NCCC[C@@H](N)C(=O)O; NH(CH2)5NH2 = NCCCCCN*; NH(CH2)4NH2 = NCCCCN*; NH(CH2)3NH2 = NCCCN*

Legend:
[1] = system: New Zealand White rabbits; assay: Rabbit cutaneous bleeding time (CBT); conditions: for Rabbit BT Ratio: Example 1, at the % P.A. inhibition given
Experimental: Unanesthetized male New Zealand White rabbits (2.5-3.5 kg) are placed in a standard rabbit restrainer. Ears are shaved and a 20 G Teflon catheter with flowswitch (Viggo) is placed in the medial artery, flushed with saline and locked with 1 ml of heparinized saline (10 m/ml). A 22 G catheter (Abbott) fitted with an injection cap (Medex) is placed in the marginal vein of the same ear. Saline or a GP IIb IIIa receptor antagonist, at a concentration of 1 to 3 mg/ml, is infused via the venous catheter. At time 0, 41% of the dose is given as a bolus over 2 minutes. The remainder is continuously infused over the following 60 minutes. Blood samples (3.2 ml) are collected into syringes without needles via the arterial catheter at -10, -5, 10, 45, and 60 minutes. The first 0.5 ml is discarded and the following 2.7 ml is collected directly into a syringe containing 0.3 ml of 3.8% sodium citrate. The sample is divided into 1.5 ml aliquots and centrifuged at room temperature for 5 seconds at 12,000 G. The resulting platelet rich plasma (PRP) is used to measure ex-vivo platelet aggregation (XPA). At -10 and 60 minutes an additional 1 cml sample is drawn for an automated blood count (Baker instruments). Catheters are flushed and locked after every sample.
CBT is measured at -10, -5, 10, and 45 minutes on the opposite ear, using an automated incision-making instrument (Surgicutt®, ITD). An incision (5mm×1 mm deep) is made on the dorsal surface of the ear at sites not supplied by major blood vessels. Blood is blotted away with absorbent paper placed near the incision site, every 2 to 15 seconds, to a maximum of 15 minutes. Cessation of bleeding is defined as no blood forming at the incision site for 15 seconds. The range of duplicate CBT in 40 normal rabbits was 0.88 to 3.38 minutes.

Fibronectin Receptor = Fibronectin Receptor (Homo sapiens, UniProt P05556+P08648); assay: Human Fibronectin-Fibronectin Receptor ELISA Assay; format: binding; design: octylglucoside (OG) extracted human placenta; from tissue; host or cells: human placenta; conditions: human placenta fibronectin receptor, fibronectin-coated plates; read-out: ELISA IC50 Fibronectin FnR
Chain of Fibronectin Receptor (P08648 42-894 limits assumed): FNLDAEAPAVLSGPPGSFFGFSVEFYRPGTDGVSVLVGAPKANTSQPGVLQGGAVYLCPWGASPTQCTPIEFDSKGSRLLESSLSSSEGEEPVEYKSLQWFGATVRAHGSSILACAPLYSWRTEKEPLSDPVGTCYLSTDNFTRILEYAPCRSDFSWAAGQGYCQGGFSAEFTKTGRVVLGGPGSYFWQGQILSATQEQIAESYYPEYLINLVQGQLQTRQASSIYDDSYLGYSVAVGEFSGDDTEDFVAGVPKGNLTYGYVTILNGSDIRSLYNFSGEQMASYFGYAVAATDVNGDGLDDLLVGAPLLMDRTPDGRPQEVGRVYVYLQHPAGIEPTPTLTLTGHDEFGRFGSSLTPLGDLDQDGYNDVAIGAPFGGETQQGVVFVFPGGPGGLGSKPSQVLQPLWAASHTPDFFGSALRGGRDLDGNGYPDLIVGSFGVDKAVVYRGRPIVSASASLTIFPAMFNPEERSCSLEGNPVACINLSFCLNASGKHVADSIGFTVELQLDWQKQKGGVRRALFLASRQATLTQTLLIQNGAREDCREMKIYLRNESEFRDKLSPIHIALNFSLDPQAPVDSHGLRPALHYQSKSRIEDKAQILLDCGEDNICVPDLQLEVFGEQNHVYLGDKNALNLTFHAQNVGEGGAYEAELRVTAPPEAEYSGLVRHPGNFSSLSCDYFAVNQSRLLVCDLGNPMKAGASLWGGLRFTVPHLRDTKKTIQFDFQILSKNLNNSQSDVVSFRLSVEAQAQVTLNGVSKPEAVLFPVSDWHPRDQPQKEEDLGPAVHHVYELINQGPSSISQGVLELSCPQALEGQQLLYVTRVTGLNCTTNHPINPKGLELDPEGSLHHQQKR
Chain of Fibronectin Receptor (P08648 895-1049 partner limits assumed): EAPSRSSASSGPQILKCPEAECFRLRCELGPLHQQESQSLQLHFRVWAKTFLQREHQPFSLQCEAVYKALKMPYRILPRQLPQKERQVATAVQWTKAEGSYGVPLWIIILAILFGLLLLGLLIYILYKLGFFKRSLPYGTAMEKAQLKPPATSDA
Chain of Fibronectin Receptor (P05556 21-798): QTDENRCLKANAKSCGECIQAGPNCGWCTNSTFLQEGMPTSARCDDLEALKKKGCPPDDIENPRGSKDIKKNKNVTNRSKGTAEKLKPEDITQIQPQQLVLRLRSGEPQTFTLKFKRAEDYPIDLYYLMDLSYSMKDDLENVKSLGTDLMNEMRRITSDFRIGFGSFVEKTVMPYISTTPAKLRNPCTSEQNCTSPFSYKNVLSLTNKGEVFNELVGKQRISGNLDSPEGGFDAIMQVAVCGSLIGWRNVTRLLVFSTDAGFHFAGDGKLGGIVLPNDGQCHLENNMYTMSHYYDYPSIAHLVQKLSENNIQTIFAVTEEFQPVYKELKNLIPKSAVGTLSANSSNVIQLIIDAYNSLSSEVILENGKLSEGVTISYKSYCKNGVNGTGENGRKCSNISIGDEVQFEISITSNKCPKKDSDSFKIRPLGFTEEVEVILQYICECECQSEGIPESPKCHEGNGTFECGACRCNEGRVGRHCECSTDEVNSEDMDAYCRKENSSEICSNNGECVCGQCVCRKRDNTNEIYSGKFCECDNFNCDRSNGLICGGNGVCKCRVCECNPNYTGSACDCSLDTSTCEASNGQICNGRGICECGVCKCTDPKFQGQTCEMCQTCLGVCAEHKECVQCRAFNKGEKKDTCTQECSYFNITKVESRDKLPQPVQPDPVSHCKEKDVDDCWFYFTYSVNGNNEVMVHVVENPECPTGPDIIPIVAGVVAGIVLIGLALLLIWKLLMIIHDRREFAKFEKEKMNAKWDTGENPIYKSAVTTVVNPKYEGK
Experimental: Fibronectin receptor is purified according to the procedures of Pytela et al., (Methods Enzymol. 144:475 […]). Briefly, fibronectin receptor is purified employing an Arg-Gly-Asp affinity chromatography from (100 mM) octylglucoside (OG) extracted human placenta. The OG extract is filtered over Sepharose 6B GRGDSPK column. The column is washed three times with three column volumes of Tris-buffered saline (TBS) TBS, 1 mM CaCl2, and 25 mM OG. The receptor is eluted with TBS, 20 mM EDTA, and 25 mM Octyl thioglucoside, and is stored in 1 mM CaCl2, 1 mM MgCl2, at -80° C.
Microtiter plates are coated with 110 μl human fibronectin (at 2 μg/ml) in TBS. Plates are washed three times with TBS containing 0.05% Tween 20. Test inhibitors are then added after washing in 10 microliter aliquots. The fibronectin receptor is added in 2-fold serial dilutions with TBS containing 20 mM octyl glucoside and 2 mM MnCl2. Plates are incubated three hours at room temperature, and washed with 200 μl TBS-Tween 20 buffer. 100 μl of affinity-purffied rabbit anti-human fibronectin receptor antibody is added to the wells and the plates are incubated two hours, washed twice with TBS-Tween and once with distilled water. Affinity-purified goat anti-rabbit IgG conjugated to horseradish peroxidase (100 μl) is added to each well followed by incubation for 60 minutes at room temperature. Plates are again washed twice with TBS-Tween and distilled water. 100 μl of substrate mixture (10 mg o-phenylenediamine in 25 ml 0.1M citrate-phosphate buffer, pH 5.0 6 μ30% H2 O2) is added to the plates and allowed to develop. The development process is stopped by adding 50 μl of 4N H2 SO4 to each well and read at […].

[2] = system: platelet rich plasma (PRP); assay: Rabbit ex-vivo platelet aggregation (XPA), ADP-induced; format: in vivo; conditions: Example 1
Experimental: Catheters are flushed and locked after every sample.
[…] of PRP is placed in a disposable glass cuvette with a stir bar. The cuvette is placed in the temperature regulated light path of a light transmittance aggregometer (Chrono-log) and equilibrated to a 37° C. Baseline transmittance is recorded for 30 seconds, after which […] of ADP (1 mM) is added and the change in transmittance recorded. The maximum change from baseline (dT) is noted for each sample. The extent of inhibition of XPA that is produced by an inhibitor is calculated for each animal as follows: Mean dTs are calculated for the pre and post infusion values, and then, percent inhibition is calculated as (1-dt (post)/ddt (pre))×100.

GP IIb IIIa = GP IIb IIIa (Homo sapiens, UniProt P05106+P08514); assay: GP IIb IIIa -von Willebrand factor (vWF) ELISA Assay; format: binding; design: GP IIb IIIa, prepared by the method of Fitzgerald et al; from tissue; conditions: GP IIb IIIa-coated plates, vWF; read-out: ELISA IC50 GPIIb IIIa vWF
Chain of GP IIb IIIa (P08514 32-887 limits assumed): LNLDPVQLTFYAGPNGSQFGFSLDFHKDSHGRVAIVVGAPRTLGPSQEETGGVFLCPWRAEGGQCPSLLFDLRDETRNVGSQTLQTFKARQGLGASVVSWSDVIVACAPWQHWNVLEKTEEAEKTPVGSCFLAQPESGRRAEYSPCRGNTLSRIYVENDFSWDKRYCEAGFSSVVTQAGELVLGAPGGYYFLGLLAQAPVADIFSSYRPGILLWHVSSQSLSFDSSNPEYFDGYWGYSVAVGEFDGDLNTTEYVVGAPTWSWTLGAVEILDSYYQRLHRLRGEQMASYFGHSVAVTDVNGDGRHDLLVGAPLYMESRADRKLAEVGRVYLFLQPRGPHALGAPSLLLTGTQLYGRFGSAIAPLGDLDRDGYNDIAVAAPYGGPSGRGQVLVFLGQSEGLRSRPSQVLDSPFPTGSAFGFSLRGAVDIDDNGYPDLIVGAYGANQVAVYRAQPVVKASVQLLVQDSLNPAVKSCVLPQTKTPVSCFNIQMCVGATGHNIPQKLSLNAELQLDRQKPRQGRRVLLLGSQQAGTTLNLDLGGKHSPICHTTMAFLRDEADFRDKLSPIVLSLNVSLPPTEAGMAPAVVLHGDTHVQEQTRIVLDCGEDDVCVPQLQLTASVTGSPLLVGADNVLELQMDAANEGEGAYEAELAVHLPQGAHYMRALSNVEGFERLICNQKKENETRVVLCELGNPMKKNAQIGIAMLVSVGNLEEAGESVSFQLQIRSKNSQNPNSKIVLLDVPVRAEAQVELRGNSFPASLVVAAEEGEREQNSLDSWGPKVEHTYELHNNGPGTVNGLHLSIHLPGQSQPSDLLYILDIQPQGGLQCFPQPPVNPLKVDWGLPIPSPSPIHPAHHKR
Chain of GP IIb IIIa (P08514 891-1039 partner limits assumed): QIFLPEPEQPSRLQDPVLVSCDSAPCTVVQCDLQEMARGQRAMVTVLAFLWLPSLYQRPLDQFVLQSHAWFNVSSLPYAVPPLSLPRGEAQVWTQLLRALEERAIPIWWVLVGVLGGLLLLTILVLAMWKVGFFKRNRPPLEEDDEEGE
Chain of GP IIb IIIa (P05106 27-788): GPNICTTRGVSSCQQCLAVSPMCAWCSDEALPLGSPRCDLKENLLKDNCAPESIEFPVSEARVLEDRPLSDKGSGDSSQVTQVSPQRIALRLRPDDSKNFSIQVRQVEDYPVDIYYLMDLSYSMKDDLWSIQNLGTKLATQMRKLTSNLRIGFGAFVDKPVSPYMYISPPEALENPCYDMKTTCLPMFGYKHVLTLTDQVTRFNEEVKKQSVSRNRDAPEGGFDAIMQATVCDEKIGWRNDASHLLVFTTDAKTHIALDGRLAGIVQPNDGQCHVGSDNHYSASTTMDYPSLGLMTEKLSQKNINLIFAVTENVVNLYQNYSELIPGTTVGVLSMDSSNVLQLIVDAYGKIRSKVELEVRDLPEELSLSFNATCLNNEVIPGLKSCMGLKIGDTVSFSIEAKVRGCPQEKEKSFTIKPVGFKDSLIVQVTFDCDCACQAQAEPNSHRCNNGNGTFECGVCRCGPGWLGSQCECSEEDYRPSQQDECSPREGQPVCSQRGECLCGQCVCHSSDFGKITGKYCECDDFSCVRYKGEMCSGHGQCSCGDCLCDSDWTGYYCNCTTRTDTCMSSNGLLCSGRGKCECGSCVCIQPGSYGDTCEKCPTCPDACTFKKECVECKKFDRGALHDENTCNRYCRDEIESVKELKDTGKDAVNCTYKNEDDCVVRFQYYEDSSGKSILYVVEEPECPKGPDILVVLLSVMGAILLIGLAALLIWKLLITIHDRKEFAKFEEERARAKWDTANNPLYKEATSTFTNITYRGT
Experimental: Microtiter plates are coated with 1.0 μg/ml GP IIb IIIa, prepared by the method of Fitzgerald et al., (Anal. Biochem. 151:169-177 [1985]) and allowed to incubate overnight in coat buffer. The plates are then washed three times in wash buffer (0.05% Tween 20 in PBS) and 150 μl of assay buffer is added and allowed to incubate for 1-2 hours at room temperature on plate shaker. The plates are washed three times and 50 μl of 2x inhibitor in assay buffer (Assay buffer: 0.5% BSA/50 mM Tris, 100 mM NaCl, 1.0 mM CaCl2, 1.0mM MgCl2, 1.0 mM MnCl2; coat buffer is the same but without BSA) is added. Fifty μl of 4.0 μg/ml vWF (prepared as described by Ledford et al., Thrombosis and Haemostasis, 64(4): 569-575 [1990]) in assay buffer is then added and allowed to incubate for one hour at room temperature on plate-shaker. The plates are washed three times and the antibody mixture is added (1:5000 of mouse anti-vWF and 1:5000 of rabbit-anti-mouse-Fc-HRP, both commercially available) in assay buffer and incubated for 1 hour at room temperature on plate-shaker. Plates are again washed three times and 100 μl of substrate solution (10 mg OPD, 6.5 μl H2 O2, 15 ml phosphate citrate buffer) is added and incubated at room temperature. The color change of OPD/H2 O2 reagent is read at 492 nm with a 405 nm reference wavelength on the filter photometer.

SMILES	Rabbit BT Ratio [1]	IC50 (Fibronectin Receptor) [nM]	Rabbit % P.A. Inhibition (ex vivo) [2]	IC50 (GP IIb IIIa) [nM]	cutaneous bleeding time, result in words [1]
N=C(N)NCCC[C@@H]1NC(=O)[C@@H](Cc2ccc(O)cc2)NC(=O)C(CCCCN)SC[C@@H](C(=O)O)NC(=O)[C@H](CC(=O)O)NC(=O)CNC1=O (single isomer, unassigned) [9/10, cyclo-S-2-L-(6-aminocaproyl)-Lys--dTyr--Arg--Gly--Asp--Cys--OH]	8.17	2	100%	0.785	–
N=C(N)NCCC[C@@H]1NC(=O)[C@@H](Cc2ccc(O)cc2)NC(=O)C(CCCCN)SC[C@@H](C(=O)O)NC(=O)[C@H](CC(=O)O)NC(=O)CNC1=O (single isomer, unassigned) [9/11, cyclo-S-2-L-(6-aminocaproyl)-Lys--dTyr--Arg--Gly--Asp--Cys--OH]	–	160	–	6.95	–
N=C(N)NCCC[C@@H]1NC(=O)[C@@H](Cc2ccc(O)cc2)NC(=O)CSC[C@@H](C(=O)N[C@H](CCCNC(=N)N)C(N)=O)NC(=O)[C@H](CC(=O)O)NC(=O)CNC1=O [7/2, cyclo-S-acetyl-dTyr--Arg--Gly--Asp--Cys--dArg--NH2] ({CH2CO}-[dY]RGDC[dR]-NH2; thioether N-5)	–	42	–	2.93	–
N=C(N)NCCC[C@@H]1NC(=O)[C@@H](Cc2ccc(O)cc2)NC(=O)CSC[C@@H](C(=O)N[C@H](CCCCN)C(N)=O)NC(=O)[C@H](CC(=O)O)NC(=O)CNC1=O [7/4, cyclo-S-acetyl-dTyr--Arg--Gly--Asp--Cys--dLys--NH2] ({CH2CO}-[dY]RGDC[dK]-NH2; thioether N-5)	–	66	–	1.56	–
N=C(N)NCCC[C@@H]1NC(=O)[C@@H](Cc2ccc(O)cc2)NC(=O)CSC[C@@H](C(=O)N[C@H](CCCN)C(N)=O)NC(=O)[C@H](CC(=O)O)NC(=O)CNC1=O [7/6, cyclo-S-acetyl-dTyr--Arg--Gly--Asp--Cys--dOrn--NH2] ({CH2CO}-[dY]RGDC[dOrn]-NH2; thioether N-5)	–	161	–	1.92	–
N=C(N)NCCC[C@H](NC(=O)[C@H](Cc1ccc(O)cc1)NC(=O)[C@@H]1CSCC(=O)N[C@H](Cc2ccc(O)cc2)C(=O)N[C@@H](CCCNC(=N)N)C(=O)NCC(=O)N[C@@H](CC(=O)O)C(=O)N1)C(N)=O [7/7, cyclo-S-acetyl-dTyr--Arg--Gly--Asp--Cys--Tyr--Arg--NH2] ({CH2CO}-[dY]RGDCYR-NH2; thioether N-5)	4.10	27	98%	–	–
CC1(C)SCC(=O)N[C@H](Cc2ccc(O)cc2)C(=O)N[C@@H](CCCCN)C(=O)NCC(=O)N[C@@H](CC(=O)O)C(=O)N[C@@H]1C(=O)N[C@@H](CCCNC(=N)N)C(N)=O [7/16, cyclo-S-acetyl-dTyr--Lys--Gly--Asp--Pen--Arg--NH2] ({CH2CO}-[dY]KGD[Pen]R-NH2; thioether N-5)	–	> 10000	–	53.5	without substantial increased cutaneous bleeding time
CC1(C)SCC(=O)N[C@H](Cc2ccc(O)cc2)C(=O)N[C@@H](CCCCN)C(=O)NCC(=O)N[C@@H](CC(=O)O)C(=O)N[C@@H]1C(=O)N[C@@H](CCCCN)C(N)=O [7/17, cyclo-S-acetyl-dTyr--Lys--Gly--Asp--Pen--Lys--NH2] ({CH2CO}-[dY]KGD[Pen]K-NH2; thioether N-5)	1.13 and 1.0	> 10000	100%	73.1	without substantial increased cutaneous bleeding time
N=C(N)NCCC[C@@H]1NC(=O)[C@@H](Cc2ccc(O)cc2)NC(=O)CSC[C@@H](C(=O)N[C@@H](CCC(N)=O)C(N)=O)NC(=O)[C@H](CC(=O)O)NC(=O)CNC1=O [7/27, cyclo-S-acetyl-dTyr--Arg--Gly--Asp--Cys--Gln--NH2] ({CH2CO}-[dY]RGDCQ-NH2; thioether N-5)	0.77 and 0.93	–	72% and 99%	–	did not increase cutaneous blood time
N=C(N)NCCC[C@@H]1NC(=O)[C@@H](Cc2ccc(O)cc2)NC(=O)CSC[C@@H](C(=O)NCCCCN)NC(=O)[C@H](CC(=O)O)NC(=O)CNC1=O [8/12, cyclo-S-acetyl-dTyr--Arg--Gly--Asp--Cys--NH--X (X = butylamine)] ({CH2CO}-[dY]RGDC-{NH(CH2)4NH2}; thioether N-5)	0.94	–	–	5.4	–
N=C(N)NCCC[C@@H]1NC(=O)[C@@H](Cc2ccc(O)cc2)NC(=O)CSC[C@@H](C(=O)NCCCCCN)NC(=O)[C@H](CC(=O)O)NC(=O)CNC1=O [8/13, cyclo-S-acetyl-dTyr--Arg--Gly--Asp--Cys--NH--X (X = pentylamine)] ({CH2CO}-[dY]RGDC-{NH(CH2)5NH2}; thioether N-5)	1.13	473	–	5.3	–
N=C(N)NCCC[C@@H]1NC(=O)[C@@H](Cc2ccc(O)cc2)NC(=O)CSC[C@@H](C(=O)NCCCN)NC(=O)[C@H](CC(=O)O)NC(=O)CNC1=O [8/22, cyclo-S-acetyl-dTyr--Arg--Gly--Asp--Cys--NH--X (X = propyl amine)] ({CH2CO}-[dY]RGDC-{NH(CH2)3NH2}; thioether N-5)	1.27	176	–	4.73	–
N=C(N)NCCC[C@@H]1NC(=O)[C@@H](Cc2ccc(O)cc2)NC(=O)CSC[C@@H](C(=O)NCCN)NC(=O)[C@H](CC(=O)O)NC(=O)CNC1=O [8/23, cyclo-S-acetyl-dTyr--Arg--Gly--Asp--Cys--NH--X (X = ethyl amine)] ({CH2CO}-[dY]RGDC-Ethylenediamine; thioether N-5)	0.81	61	–	4.67	–
N=C(N)NCCC[C@H](NC(=O)[C@@H]1CCCC(=O)N[C@H](Cc2ccc(O)cc2)C(=O)N[C@@H](CCCNC(=N)N)C(=O)NCC(=O)N[C@@H](CC(=O)O)C(=O)N1)C(N)=O [10/19, cyclo(1-5)dTyr--Arg--Gly--Asp--L-α-aminoadipic acid-Arg--NH2] ([dY]RGD[Aad]R-NH2; lactam N-5)	–	745	–	2.9	–
N=C(N)NCCC[C@@H]1NC(=O)[C@@H](Cc2ccc(O)cc2)NC(=O)CCC[C@@H](C(=O)N[C@@H](CCCCN)C(N)=O)NC(=O)[C@H](CC(=O)O)NC(=O)CNC1=O [10/20, cyclo(1-5)dTyr--Arg--Gly--Asp--L-α-aminoadipic acid-Lys--NH2] ([dY]RGD[Aad]K-NH2; lactam N-5)	2,0	2310	100%	2.74	–
